From the supplement of paper PMC10307832

Columns and labels:
Assay in all cases: relative viability (nuclei count vs DMSO), 5 days (fraction); higher = more cells survive
Axitinib + Dasatinib = compound: CNC(=O)c1ccccc1Sc1ccc2c(/C=C/c3ccccn3)n[nH]c2c1 [Axitinib] + Cc1nc(Nc2ncc(C(=O)Nc3c(C)cccc3Cl)s2)cc(N2CCN(CCO)CC2)n1 [Dasatinib] (partner 0.075 µM)
In short: (§1)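 One day after seeding in 1536-well plates, lung cancer cell lines were dosed by pin tool. Dosing was either single-drug or a fixed anchor-drug dose plus five library-drug doses (not always all listed) in √10 steps. After 5 days, nuclei were stained in one fix-and-stain step and counted on 4× images, and relative viability is the nuclei count of treated wells over that of vehicle wells, given as the median of duplicate plates.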

[1] = compound: CC1=CC=C(C=C1)C(=O)CN2C3=C(CCCC3)SC2=N [Pifithrin_alpha] + CC(=O)c1c(C)c2cnc(Nc3ccc(N4CCNCC4)cn3)nc2n(C2CCCC2)c1=O [Palbociclib] (partner 0.5 µM)
In short: as §1

Bemcentinib + Linsitinib = compound: Nc1nc(Nc2ccc3c(c2)CC[C@@H](N2CCCC2)CC3)nn1-c1cc2c(nn1)-c1ccccc1CCC2 [Bemcentinib] + C[C@]1(O)C[C@@H](c2nc(-c3ccc4ccc(-c5ccccc5)nc4c3)c3c(N)nccn32)C1 [Linsitinib] (partner 1 µM)
In short: as §1

[2] = compound: CC1=CC=C(C=C1)C(=O)CN2C3=C(CCCC3)SC2=N [Pifithrin_alpha] + COc1cc2c(Oc3ccc(NC(=O)C4(C(=O)Nc5ccc(F)cc5)CC4)cc3F)ccnc2cc1OCCCN1CCOCC1 [Foretinib] (partner 0.25 µM)
In short: as §1

NCI-H650
relative viability (Axitinib + Dasatinib; first compound 0.005 µM): 0.496
relative viability (Axitinib + Dasatinib; first compound 0.01581 µM): 0.455
relative viability (Axitinib + Dasatinib; first compound 0.05 µM): 0.47
relative viability (Axitinib + Dasatinib; first compound 0.1581 µM): 0.436
relative viability (Axitinib + Dasatinib; first compound 0.5 µM): 0.396
relative viability ([1]; first compound 3.162 µM): 0.371
relative viability ([1]; first compound 10 µM): 0.328
relative viability ([1]; first compound 31.62 µM): 0.204
relative viability ([1]; first compound 100 µM): 0.327
relative viability (Bemcentinib + Linsitinib; first compound 0.04 µM): 0.976
relative viability (Bemcentinib + Linsitinib; first compound 0.1265 µM): 0.982
relative viability (Bemcentinib + Linsitinib; first compound 0.4 µM): 0.974
relative viability (Bemcentinib + Linsitinib; first compound 1.265 µM): 0.823
relative viability (Bemcentinib + Linsitinib; first compound 4 µM): 0.774
relative viability ([2]; first compound 3.162 µM): 0.996
relative viability ([2]; first compound 10 µM): 1.05
relative viability ([2]; first compound 31.62 µM): 0.793
relative viability ([2]; first compound 100 µM): 0.902
